Reference: US5252559A, “His-Gly-Gly peptide and derivatives thereof for hair growth” (The Procter & Gamble Company, priority 1991, dated 1993)
Peptide text beside a SMILES is read from it.

System: male C3H mice
Test: C3H Mouse Model, topical study of hair growth
Type: in vivo
Procedure: The effect of the compounds of the present invention on hair growth is assessed using male C3H mice (Harlan Sprague Dawley, Inc., Indianapolis, Ind.) as an animal model. The mice are 52 days old at the time of first does. They are individually housed in "shoe box" cages (Scientific Products, Chicago, Ill.). Ten mice are used per test group.
Not more than four hours before treatment, the animals are anesthetized with an intraperitoneal mixture of acepromazine maleate (1.6 mg/kg), xylazine (4.8 mg/kg) and ketamine hydrochloride (64 mg/kg) dosed in a saline vehicle in a total volume of 0.2 ml per 25 g mouse. The entire back of the animal is clipped closely with a small animal clipper (Wahl model 8900, Wahl Clipper Corp., Sterling, Ill.). […]
On days of photography, the animals are photographed prior to dosing. […] Results are expressed as the percent of shaved area responding with anagen skin, and the percent of shaved area responding with hair growth.
A positive response, i.e., an increase of greater than 10% over control, indicates the potential of the test compound to regulate hair growth. Accordingly, when hair growth peptides as herein defined, are assessed either individually or in combination as a test compound in the C3H Mouse Model, an increase over control of at least 10%, preferably 40%, more preferably 70%, after four weeks treatment will be obtained. […]

## N[C@@H](Cc1c[nH]cn1)C(=O)NCC(=O)NCC(=O)O [His-Gly-Gly, Histidyl-glycyl-glycine] (H-His-Gly-Gly-OH)
topical, 1.0% in Tris buffer/propylene glycol/glycerine (67/30/3, pH 8.0) vehicle, after 4 weeks of treatment, mean of 10 mice
  mean percent of shaved area that is covered with hair at Day 25: 44.3%
Versus vehicle control, Day 25, topical 1.0%
  increase in hair growth: 96%
